Key:
[1] = tested on: C. albicans SC5314; test: CLSI broth microdilution susceptibility (Table 1); format: cell-based; details: 48 h, 35° C.
Experimental: (§1) ICAN has 3 key moieties, namely the amino, naphthalene and isonitrile. To find out which ones of them are essential for the antifungal behavior and to design more efficient derivatives, comparative studies were carried out, where one of the moieties was exchanged or eliminated. All ICAN derivatives were tested against C. albicans SC5314, C. krusei ATCC 6258 and C. parapsilosis ATCC 22019. The antifungal agents were dissolved in 100% DMSO and diluted further in RPMI-1640 (with L-glutamine but without bicarbonate) and buffered to pH 7.0 with 0.165 M morpholinopropanesulfonic acid (MOPS). MICs were read visually after 48-h incubation at 35° C. using the partial (50%) inhibition (for ICAN derivatives) (PI) and total inhibition (for AMB and ICAN derivatives) (TI) criteria. MICs were determined at least twice.
(§2) The tested C. albicans, C. tropicalis, C. parapsilosis, C. glabrata and C. krusei ATCC strains and clinical isolates are listed in Table 2. MICs were determined according to the CLSI M27-A3 [22]. Antifungal agents were dissolved in 100% DMSO and diluted further in RPMI-1640 (with L-glutamine but without bicarbonate) (Sigma, Budapest, Hungary), and buffered to pH 7.0 with 0.165 M morpholinopropanesulfonic acid (MOPS; Sigma, Budapest, Hungary). The final concentration ranges used for AMB and ICAN derivatives were 0.125 to 4 μg/ml and 0.04 to 20 μg/ml, respectively. Yeast cell suspensions were prepared in RPMI 1640 medium and were adjusted to give a final inoculum concentration of 0.5×10^3 to 2.5×10^3 cells/ml. MICs were read visually after 48-h incubation at 35° C. using the partial (50%) inhibition (for ICAN derivatives) (PI) and total inhibition (for AMB and ICAN derivatives) (TI) criteria. MICs were determined at least twice. For amphotericin B isolates with MIC values of ≤2 mg/L were considered wild-types. [Pfaller M A, 2012]

[2] = tested on: C. krusei ATCC 6258; test: CLSI broth microdilution susceptibility (Table 1); format: cell-based; details: 48 h, 35° C.
Experimental: as §1, §2

[3] = tested on: C. parapsilosis ATCC 22019; test: CLSI broth microdilution susceptibility (Table 1); format: cell-based; details: 48 h, 35° C.
Experimental: as §1, §2

[4] = tested on: C. albicans SC5314, C. krusei ATCC 6258 and C. parapsilosis ATCC 22019; test: CLSI broth microdilution, MIC summarised over the three Candida test strains; format: cell-based; details: value or range over the three Candida strains of Table 1, total inhibition
Experimental: as §1, §2

[5] = tested on: human cell cultures; test: MTT bio assay cytotoxicity; format: cell-based; details: MTT bio assay technique
[6] = tested on: C. albicans 3666; test: Time-lapse imaging of fungal growth in infected HaCat cultures; format: cell-based; details: 7.5 μg/ml, HaCat cells infected with C. albicans 3666, 24 h; DMSO control exceeded 1000%
Text: As we mentioned in the Background art, studies have been carried out to successfully utilize 1-N-methylamino-5-isocyanonaphthalene (MICAN) as vital cell dye on different human cell lines [Nagy Z L, 2018]. […] Since these dyes are nonpolar, they are expected to easily bind to and stain the nonpolar chitin in the cell wall of different fungi species. We tested this assumption on common yeast from a local shop, and much to our surprise after staining, the yeast cells stopped growing and died in a short time. Repeated experiments led to the same conclusion; however, the applied dye concentration was well below the LD50 determined for human cells. […] It should be noted, however, that in the case of the untreated HaCat cells the fungal growth exceeded 1000% (24 h) calculated from the hyphal area (FIG. 1b, DMSO control). […]
Image analysis plug-ins were developed by a Java-based image processing software, The ImageJ v1.39d (US National Institutes of Health) program enabled the quantitative analysis of fungi. The software is requesting a set of data for the analysis from the user, along with the directory in which the bank of images to be analysed are contained. Image processing and quantitative image analysis were carried out as previously described [Nagy G, 2014]. […]

[7] = tested on: HaCat cells; test: HaCat cell damage during time-lapse imaging; format: cell-based, human; details: under 24 hours, MICAN-treated infected cultures
Text: (§3) As we mentioned in the Background art, studies have been carried out to successfully utilize 1-N-methylamino-5-isocyanonaphthalene (MICAN) as vital cell dye on different human cell lines [Nagy Z L, 2018]. […] Since these dyes are nonpolar, they are expected to easily bind to and stain the nonpolar chitin in the cell wall of different fungi species. We tested this assumption on common yeast from a local shop, and much to our surprise after staining, the yeast cells stopped growing and died in a short time. Repeated experiments led to the same conclusion; however, the applied dye concentration was well below the LD50 determined for human cells. We assumed that these compounds may have antifungal effect, therefore C. albicans, one of the most common human pathogenic fungi was selected for further tests. HaCat cell cultures (spontaneously transformed aneuploid immortal keratinocyte cells from adult human skin) were infected with C. albicans 3666 (same isolate as used in animal experiments) and were treated with different concentrations of MICAN dissolved in DMSO. The fungal growth was followed by time lapse imaging for 24 hours. […] It should be noted, however, that in the case of the untreated HaCat cells the fungal growth exceeded 1000% (24 h) calculated from the hyphal area (FIG. 1b, DMSO control).

[8] = tested on: commercial strain of Saccharomyces cerevisiae; test: Staining/growth of common yeast; format: cell-based
Text: as §3

In the case of `[C-]#[N+]c1cccc2c(NC)cccc12` [MICAN, N-methyl-1-amino-5-isocyanonaphthalene], the MICPI ([1]; partial (50%) inhibition) is reported as 0.3 µg/mL, the MICTI ([1]; total inhibition) is reported as 1.25 µg/mL and the MICPI ([2]; partial (50%) inhibition) is reported as 0.15 µg/mL. The MICTI ([2]; total inhibition) was 1.25 µg/mL, the MICPI ([3]; partial (50%) inhibition) was 0.15 µg/mL and the MICTI ([3]; total inhibition) was 0.75 µg/mL. For the same molecule, the MICTI [4] was 0.75 to 1.25 µg/mL, the LD50 [5] was 18 µg/mL and the “fungal growth calculated from the hyphal area” value [6] was about 30%. For the same molecule, the “damage of treated HaCat cells” value [7] was “no sign of damage” and the “antifungal effect on yeast” value [8] was “effective”.
